In patent publication US8614201B2 (Janssen Pharmaceutica NV, priority 2009, dated 2013):

Target: Human TRPA1 (Homo sapiens, UniProt O75762)
Experiment: Alternative TRPA1 Ca2+ fluorometry assay (hTRPA1/TREx-HEK293 cells, Fluo-4, FDSS 6000)
Type: cell-based
Design: expressed in transfected cells
Conditions: Fluo-4-AM, agonist 6,11-dihydro-5H-dibenzo[b,e]azepine-10-carboxylic acid methyl ester 25 nM, procedure used for Examples 184, 190 to 192, 194 to 316
Summary of the method: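 Tetracycline-induced (50 ng/ml, 24 h) hTRPA1/TREx-HEK293 cells were loaded with Fluo-4-AM and probenecid. Compound (1% DMSO final) was added after a 12 s baseline and the Ca2+ signal followed for 14 min, then 25 nM TRPA1 agonist dibenzazepine carboxylic acid methyl ester was applied. Signal is Em540 (ex 488 nm) relative to the first baseline reading.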

Chain of Human TRPA1 (O75762 whole entry): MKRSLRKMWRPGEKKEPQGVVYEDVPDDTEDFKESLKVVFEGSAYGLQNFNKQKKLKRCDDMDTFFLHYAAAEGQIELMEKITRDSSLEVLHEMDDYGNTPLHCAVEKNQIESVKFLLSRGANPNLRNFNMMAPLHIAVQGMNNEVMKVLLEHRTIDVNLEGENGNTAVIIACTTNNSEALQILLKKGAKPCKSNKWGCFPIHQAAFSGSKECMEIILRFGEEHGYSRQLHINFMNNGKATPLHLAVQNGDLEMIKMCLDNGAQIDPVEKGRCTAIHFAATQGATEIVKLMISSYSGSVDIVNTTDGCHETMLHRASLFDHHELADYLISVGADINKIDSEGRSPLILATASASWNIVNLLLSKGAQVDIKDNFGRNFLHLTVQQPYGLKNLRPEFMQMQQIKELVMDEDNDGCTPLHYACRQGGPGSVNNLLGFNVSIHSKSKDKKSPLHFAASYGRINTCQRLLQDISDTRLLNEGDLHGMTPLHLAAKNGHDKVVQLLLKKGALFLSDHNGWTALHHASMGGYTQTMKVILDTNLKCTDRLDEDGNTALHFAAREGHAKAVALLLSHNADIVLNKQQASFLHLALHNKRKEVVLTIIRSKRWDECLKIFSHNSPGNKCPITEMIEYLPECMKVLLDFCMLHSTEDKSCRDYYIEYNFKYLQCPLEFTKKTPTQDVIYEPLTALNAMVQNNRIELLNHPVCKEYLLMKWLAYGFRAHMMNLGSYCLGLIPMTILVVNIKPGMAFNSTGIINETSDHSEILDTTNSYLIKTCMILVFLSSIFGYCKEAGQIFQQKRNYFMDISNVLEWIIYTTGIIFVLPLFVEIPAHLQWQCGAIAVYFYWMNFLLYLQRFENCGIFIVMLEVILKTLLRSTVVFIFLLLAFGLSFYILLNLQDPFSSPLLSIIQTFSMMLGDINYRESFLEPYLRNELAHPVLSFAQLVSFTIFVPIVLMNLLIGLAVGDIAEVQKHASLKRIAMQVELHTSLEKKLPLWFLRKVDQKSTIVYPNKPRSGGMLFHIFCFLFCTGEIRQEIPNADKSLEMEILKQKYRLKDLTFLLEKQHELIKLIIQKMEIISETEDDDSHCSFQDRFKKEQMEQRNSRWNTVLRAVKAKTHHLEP

SMILES | IC50 [µM]
Cc1cccc(S(=O)(=O)N2CCC[C@H]2C(=O)NCc2cc(-c3ccc(C(F)(F)F)cc3)nc(N3CCN(c4ccccc4F)CC3)n2)c1 [Example 271, 1-(Toluene-3-sulfonyl)-pyrrolidine-2S-carboxylic acid [2-[4-(2-fluoro-phenyl)-piperazin-1-yl]-6-(4-trifluoromethyl-phenyl)-pyrimidin-4-ylmethyl]-amide] | > 10
O=C(NCc1cc(-c2ccc(C(F)(F)F)cc2)nc(N2CCN(c3ccccc3F)CC2)n1)[C@@H]1CCCN1S(=O)(=O)c1ccccc1 [Example 272, 1-Benzenesulfonyl-pyrrolidine-2S-carboxylic acid [2-[4-(2-fluoro-phenyl)-piperazin-1-yl]-6-(4-trifluoromethyl-phenyl)-pyrimidin-4-ylmethyl]-amide] | ~0.436
O=C(NCc1cc(-c2ccc(C(F)(F)F)cc2)nc(N2CCN(c3ccccc3F)CC2)n1)[C@@H]1CCCN1S(=O)(=O)c1cccc(Cl)c1F [Example 273, 1-(3-Chloro-2-fluoro-benzenesulfonyl)-pyrrolidine-2S-carboxylic acid [2-[4-(2-fluoro-phenyl)-piperazin-1-yl]-6-(4-trifluoromethyl-phenyl)-pyrimidin-4-ylmethyl]-amide] | > 10
CC(=O)c1ccc(S(=O)(=O)N2CCC[C@H]2C(=O)NCc2cc(-c3ccc(C(F)(F)F)cc3)nc(N3CCN(c4ccccc4F)CC3)n2)cc1 [Example 274, 1-(4-Acetyl-benzenesulfonyl)-pyrrolidine-2S-carboxylic acid [2-[4-(2-fluoro-phenyl)-piperazin-1-yl]-6-(4-trifluoromethyl-phenyl)-pyrimidin-4-ylmethyl]-amide] | > 10
Cc1cc(C)c(S(=O)(=O)N2CCC[C@H]2C(=O)NCc2cc(-c3ccc(C(F)(F)F)cc3)nc(N3CCN(c4ccccc4F)CC3)n2)c(C)c1 [Example 275, 1-(2,4,6-Trimethyl-benzenesulfonyl)-pyrrolidine-2-carboxylic acid [2-[4-(2-fluoro-phenyl)-piperazin-1-yl]-6-(4-trifluoromethyl-phenyl)-pyrimidin-4-ylmethyl]-amide] | > 10
O=C(NCc1cc(-c2ccc(C(F)(F)F)cc2)nc(N2CCN(c3ccccc3F)CC2)n1)[C@@H]1CCCN1S(=O)(=O)c1ccccc1F [Example 276, 1-(2-Fluoro-benzenesulfonyl)-pyrrolidine-2S-carboxylic acid [2-[4-(2-fluoro-phenyl)-piperazin-1-yl]-6-(4-trifluoromethyl-phenyl)-pyrimidin-4-ylmethyl]-amide] | 6.17
Cc1cccc(Cl)c1S(=O)(=O)N1CCC[C@H]1C(=O)NCc1cc(-c2ccc(C(F)(F)F)cc2)nc(N2CCN(c3ccccc3F)CC2)n1 [Example 277, 1-(2-Chloro-6-methyl-benzenesulfonyl)-pyrrolidine-2S-carboxylic acid [2-[4-(2-fluoro-phenyl)-piperazin-1-yl]-6-(4-trifluoromethyl-phenyl)-pyrimidin-4-ylmethyl]-amide] | > 10
O=C(NCc1cc(-c2ccc(C(F)(F)F)cc2)nc(N2CCN(c3ccccc3F)CC2)n1)[C@@H]1CCCN1S(=O)(=O)c1ccc(Cl)cc1F [Example 278, 1-(4-Chloro-2-fluoro-benzenesulfonyl)-pyrrolidine-2S-carboxylic acid [2-[4-(2-fluoro-phenyl)-piperazin-1-yl]-6-(4-trifluoromethyl-phenyl)-pyrimidin-4-ylmethyl]-amide] | > 10
Cc1ccccc1S(=O)(=O)N1CCC[C@H]1C(=O)NCc1cc(-c2ccc(C(F)(F)F)cc2)nc(N2CCN(c3ccccc3F)CC2)n1 [Example 279, 1-(Toluene-2-sulfonyl)-pyrrolidine-2S-carboxylic acid [2-[4-(2-fluoro-phenyl)-piperazin-1-yl]-6-(4-trifluoromethyl-phenyl)-pyrimidin-4-ylmethyl]-amide] | > 10
Cc1ccc(S(=O)(=O)N2CCC[C@H]2C(=O)NCc2cc(-c3ccc(C(F)(F)F)cc3)nc(N3CCN(c4ccccc4F)CC3)n2)cc1Cl [Example 280, 1-(3-Chloro-4-methyl-benzenesulfonyl)-pyrrolidine-2S-carboxylic acid [2-[4-(2-fluoro-phenyl)-piperazin-1-yl]-6-(4-trifluoromethyl-phenyl)-pyrimidin-4-ylmethyl]-amide] | > 10
O=C(NCc1cc(-c2ccc(C(F)(F)F)cc2)nc(N2CCN(c3ccccc3F)CC2)n1)[C@@H]1CCCN1S(=O)(=O)c1cc(F)cc(F)c1 [Example 281, 1-(3,5-Difluoro-benzenesulfonyl)-pyrrolidine-2S-carboxylic acid [2-[4-(2-fluoro-phenyl)-piperazin-1-yl]-6-(4-trifluoromethyl-phenyl)-pyrimidin-4-ylmethyl]-amide] | 5.49
CC(C)(C)c1ccc(S(=O)(=O)N2CCC[C@H]2C(=O)NCc2cc(-c3ccc(C(F)(F)F)cc3)nc(N3CCN(c4ccccc4F)CC3)n2)cc1 [Example 282, 1-(4-tert-Butyl-benzenesulfonyl)-pyrrolidine-2S-carboxylic acid [2-[4-(2-fluoro-phenyl)-piperazin-1-yl]-6-(4-trifluoromethyl-phenyl)-pyrimidin-4-ylmethyl]-amide] | > 10
O=C(NCc1cccc(-c2ccc(C(F)(F)F)cc2)n1)[C@@H]1CCCN1S(=O)(=O)c1ccc(F)cc1 [Example 283, 1-(4-Fluoro-benzenesulfonyl)-pyrrolidine-2S-carboxylic acid [6-(4-trifluoromethyl-phenyl)-pyridin-2-ylmethyl]-amide] | ~0.724
O=C(NCc1cccc(-c2ccc(C(F)(F)F)cc2)n1)[C@@H]1CCCN1S(=O)(=O)c1ccc(Cl)s1 [Example 284, 1-(5-Chloro-thiophene-2-sulfonyl)-pyrrolidine-2S-carboxylic acid [6-(4-trifluoromethyl-phenyl)-pyridin-2-ylmethyl]-amide] | ~1.07
O=C(NCc1cc(-c2ccc(C(F)(F)F)cc2)nc(-c2ccc(C(F)(F)F)cc2)n1)[C@@H]1CCCN1S(=O)(=O)c1ccc(F)cc1 [Example 285, 1-(4-Fluoro-benzenesulfonyl)-pyrrolidine-2S-carboxylic acid [2,6-bis-(4-trifluoromethyl-phenyl)-pyrimidin-4-ylmethyl]-amide] | 0.022
O=C(NCc1cc(-c2ccc(C(F)(F)F)cc2)nc(N2CCN(c3ccccc3F)CC2)n1)[C@@H]1CCCN1S(=O)(=O)c1ccc(F)cc1 [Example 286, 1-(4-Fluoro-benzenesulfonyl)-pyrrolidine-2S-carboxylic acid [2-[4-(2-fluoro-phenyl)-piperazin-1-yl]-6-(4-trifluoromethyl-phenyl)-pyrimidin-4-ylmethyl]-amide] | ~0.158
COc1ccc(Nc2nc(CNC(=O)[C@@H]3CCCN3S(=O)(=O)c3ccc(F)cc3)cc(-c3ccc4c(c3)OCO4)n2)cc1 [Example 287, 1-(4-Fluoro-benzenesulfonyl)-pyrrolidine-2S-carboxylic acid [6-benzo[1,3]dioxol-5-yl-2-(4-methoxy-phenylamino)-pyrimidin-4-ylmethyl]-amide] | 3.72
CN1CCN(C(=O)c2ccc(Nc3nc(CNC(=O)[C@@H]4CCCN4S(=O)(=O)c4ccc(F)cc4)cc(-c4ccc5c(c4)OCO5)n3)cc2)CC1 [Example 288, 1-(4-Fluoro-benzenesulfonyl)-pyrrolidine-2S-carboxylic acid {6-benzo[1,3]dioxol-5-yl-2-[4-(4-methyl-piperazine-1-carbonyl)-phenylamino]-pyrimidin-4-ylmethyl}-amide] | > 10
CC(C)CN(CCO)c1nc(CNC(=O)[C@@H]2CCCN2S(=O)(=O)c2ccc(F)cc2)cc(-c2ccc(Br)cc2)n1 [Example 289, 1-(4-Fluoro-benzenesulfonyl)-pyrrolidine-2S-carboxylic acid {6-(4-bromo-phenyl)-2-[(2-hydroxy-ethyl)-isobutyl-amino]-pyrimidin-4-ylmethyl}-amide] | ~3.47
O=C(NCc1cc(-c2ccc(Br)cc2)nc(NC2CC2)n1)[C@@H]1CCCN1S(=O)(=O)c1ccc(F)cc1 [Example 290, 1-(4-Fluoro-benzenesulfonyl)-pyrrolidine-2S-carboxylic acid [6-(4-bromo-phenyl)-2-cyclopropylamino-pyrimidin-4-ylmethyl]-amide] | ~0.708
C#CCNc1nc(CNC(=O)[C@@H]2CCCN2S(=O)(=O)c2ccc(F)cc2)cc(-c2ccc(C(F)(F)F)cc2)n1 [Example 291] | ~0.407
O=C(NCc1cc(-c2ccc3c(c2)OCO3)nc(NCCc2ccc(Cl)cc2Cl)n1)[C@@H]1CCCN1S(=O)(=O)c1ccc(F)cc1 [Example 292, 1-(4-Fluoro-benzenesulfonyl)-pyrrolidine-2S-carboxylic acid {6-benzo[1,3]dioxol-5-yl-2-[2-(2,4-dichloro-phenyl)-ethylamino]-pyrimidin-4-ylmethyl}-amide] | > 10
O=C(NCc1cc(-c2ccc(Br)cc2)nc(NCCO)n1)[C@@H]1CCCN1S(=O)(=O)c1ccc(F)cc1 [Example 293, 1-(4-Fluoro-benzenesulfonyl)-pyrrolidine-2S-carboxylic acid [6-(4-bromo-phenyl)-2-(2-hydroxy-ethylamino)-pyrimidin-4-ylmethyl]-amide] | 2.69
O=C(NCc1cc(-c2ccc(C(F)(F)F)cc2)nc(NCc2cccnc2)n1)[C@@H]1CCCN1S(=O)(=O)c1ccc(F)cc1 [Example 294, 1-(4-Fluoro-benzenesulfonyl)-pyrrolidine-2S-carboxylic acid [2-[(pyridin-3-ylmethyl)-amino]-6-(4-trifluoromethyl-phenyl)-pyrimidin-4-ylmethyl]-amide] | ~1
O=C(NCc1cc(-c2ccc(Br)cc2)nc(NCCc2ccccn2)n1)[C@@H]1CCCN1S(=O)(=O)c1ccc(F)cc1 [Example 295, 1-(4-Fluoro-benzenesulfonyl)-pyrrolidine-2S-carboxylic acid [6-(4-bromo-phenyl)-2-(2-pyridin-2-yl-ethylamino)-pyrimidin-4-ylmethyl]-amide] | 1.74
